Laboratory results as given in US20250288590A1, “DRUG SUSTAINED-RELEASE TABLET FOR TREATING LIVER DISEASE, PREPARATION METHOD THEREFOR AND USE THEREOF” (CHANGCHUN INTELLICROWN PHARMACEUTICAL CO., LTD., priority 2022, published 2025).

Assays:
[1] = rat pharmacokinetic studies, oral administration; assay type: in vivo; settings: rats
[2] = solubility, pH dependence; assay type: physicochemical; settings: mesylate; increasing pH
[3] = pharmacokinetics in Beagle dogs, oral administration of the compound; assay type: in vivo

Compound: COC(=O)c1cc(OC)c2c(c1-c1c(CN3CCOCC3)cc(OC)c3c1OCO3)OCO2 [IMM-H014, methyl 7,7′-dimethoxy-5′-(morpholinomethyl)-[4,4′-bibenzo[d][1,3]dioxole]-5-carboxylate]
- bioavailability ([1]; rat, blood, oral): 96.3%
- half-life ([1]; rat, blood, oral administration, read-out: elimination half-life (converted)): ~1.8 h
- peak blood concentration (time) ([1]; oral administration): 0.5 h
- solubility (pH-dependent) [2]: as the pH increases, the solubility gradually decreases
- half-life ([3]; dog, blood, Beagle dogs, read-out: elimination half-life (converted)): ~3.5 h
- time to peak blood concentration (Tmax) ([3]; dogs): 0.5 h
